Test system: Arabidopsis thaliana
Test: Plate-based in vivo herbicidal screen, Arabidopsis thaliana
Details: 192 h, seeds in 96-well plate, 27° C., 8 days, continuous fluorescent lighting, scored by visual inspection
Description: Plate-based in vivo screens were used to identify compounds with herbicidal activity. Three species of plants were used in screening: Arabidopsis thaliana, Agrostis sp. and Nicotinia tabacum (common tobacco). Test compounds in 1 μL of dimethylsulfoxide (DMSO) were delivered to individual wells of a 96-well microtiter plate. Growth media containing 10-15 seeds per 100 uL were then added. The growth media consisted of Murashige and Skoog Basal salt mixture, and 0.15% low melt agarose, all at a pH 6.2. The seeds remained neutrally buoyant and were easily pipettable at this concentration of low melt agarose. Each plate contained a column of untreated control wells in order to determine the false positive rate. The plates were covered and sealed and incubated at 27° C. for 8 days under continuous fluorescent lighting (155 umol/m^2/s). The plates were scored for herbicidal activity by visual inspection. Observed symptomology included growth inhibition, bleaching, leaf curling, and root growth inhibition. Six commercial herbicide standards were run concurrently with the experimental compounds as internal controls for assay sensitivity and plant response. The standards are described in Table 1 with their biochemical mode of action. The herbicidal activity of compositions in the present invention, presented as EC90 concentrations in the Arabidopsis thaliana screen, is tabulated in Table 2.

Row | Structure (SMILES) | EC90 [nM]
1 | O=C(Nc1cccc(C(=O)NNC(=S)Nc2ccccc2Cl)c1Cl)c1cccc(Cl)c1 [Compound 3, 1-[2-Chloro-3-(3-chloro-benzamido)-benzoyl]-4-(2-chlorophenyl)-thiosemicarbazide] | 3300
2 | O=C(Nc1cccc(C(=O)NNC(=S)Nc2ccccc2Cl)c1Cl)c1cccc(C(F)(F)F)c1 [Compound 14, 4-(2-Chlorophenyl)-1-[2-chloro-3-(3-trifluoromethylbenzamido)-benzoyl]-thiosemicarbazide] | 300
3 | O=C(NNC(=S)Nc1ccccc1Cl)c1cccc(NC(=O)c2cccc(C(F)(F)F)c2)c1 [Compound 12, 4-(2-Chlorophenyl)-1[3-(3-trifluoromethylbenzamido)-benzoyl]-thiosemicarbazide] | 300
4 | O=C(NNC(=S)Nc1ccccc1C(F)(F)F)c1cccc(NC(=O)c2cccc(Cl)c2)c1 [Compound 7, 1-[3-(3-Chlorobenzamido)-benzoyl]-4-(2-trifluoromethylphenyl)-thiosemicarbazide] | 1200
5 | Cc1c(NC(=O)c2cccc(Cl)c2)cccc1C(=O)NNC(=S)Nc1ccccc1Cl [Compound 4, 1-[3-(3-Chlorobenzamido)-2-methylbenzoyl]-4-(2-chloro-phenyl)-thiosemicarbazide] | 300
6 | O=C(NNC(=S)Nc1ccccc1F)c1cccc(NC(=O)c2cccc(Cl)c2)c1 [Compound 9, 1-[3-(3-Chlorobenzamido)-benzoyl]-4-(2-fluorophenyl)-thiosemicarbazide] | 50
7 | O=C(NNC(=S)Nc1ccccc1Cl)c1cccc(NC(=O)c2cccc(F)c2)c1 [Compound 23, 4-(2-Chlorophenyl)-1-[3-(3-fluorobenzamido)-benzoyl]-thiosemicarbazide] | 50
8 | O=C(NNC(=S)Nc1ccccc1Cl)c1ccc(Cl)c(NC(=O)c2cccc(C(F)(F)F)c2)c1 [Compound 11, 4-(2-Chlorophenyl)-1-[4-chloro-3-(3-trifluoromethylbenzamido)-benzoyl]-thiosemicarbazide] | 3300
9 | O=C(NNC(=S)Nc1ccccc1Cl)c1cccc(NC(=O)c2cc(F)ccc2F)c1 [Compound 22, 4-(2-Chlorophenyl)-1-[3-(2,5-difluorobenzamido)-benzoyl]-thiosemicarbazide] | 50
10 | O=C(NNC(=S)Nc1ccccc1)c1cccc(NC(=O)c2cccc(Cl)c2)c1 [Compound 6, 1-[3-(3-Chlorobenzamido)-benzoyl]-4-phenyl-thiosemicarbazide] | 150
11 | O=C(NNC(=S)Nc1ccccc1Cl)c1cccc(NC(=O)c2cccc(Cl)c2)c1 [Compound 2, 1-[3-(3-Chlorobenzamido)-benzoyl]-4-(2-chlorophenyl)-thiosemicarbazide] | 100

From patent US7312181B2, “Acylated thiosemicarbazides as herbicides” (Cropsolution, Inc., priority 2005, dated 2007)
